# In PMC6297231 (Nature Communications, 2018):
# What was measured:
# Daudi = assay: Cell viability assay; type: cell-based; conditions: Homo sapiens, 24 h; Daudi (NHL); read-out: AZD5991 24h GI50
# [1] = tested on: NCI-H23 cells with enhanced expression of Bcl-xL; assay: Cell death in NCI-H23 with doxycycline-inducible Bcl-xL
# Source text: The lentiviral plasmid pTRIPZ-FLAG-BCL-XL was used for generation of NCI-H23 cells stably expressing doxycyline-inducible Bcl-xL. To produce viruses, the construct of interest was co-transfected into HEK293T cells with a plasmid encoding the packaging viruses (pPACKH1 Lentivector Packaging Kit, cat#LV500A1 SystemBioscience) using Lipofectamine transfection reagent (ThermoFisher Scientific). The lentiviruses were harvested, filtered, and used to infect target cells following standard procedures. Transduced cells were then subject to puromycin selection for 3 weeks before evaluation in apoptosis and cell proliferation assays.
# (b) NCI-H23 cells stably expressing doxycycline-inducible Bcl-xL were treated with
# determined using CellTiter Glo and GraphPad Prism for data analysis. Data shown is the average of 2 experiments.
# FaDu = assay: Cell viability assay; type: cell-based; conditions: Homo sapiens, 24 h; FaDu (Others); read-out: AZD5991 24h GI50
# MDAMB468 = assay: cells; conditions: Homo sapiens, MDA-MB-468, 6 h, read-out: AZD5991 6h EC50
# Procedure: (§1) Cells were plated at 3000 cells/well in 384-well white plates in corresponding cell growth media. […] Caspase-3/7 activation was subsequently determined using a Caspase-Glo 3/7 Reagent (Promega) and viability was assayed using the CellTiter-Glo Reagent (Promega) as described in manufacturer’s instructions. Dose–response curves for caspase-3/7 activation and viability were plotted and analyzed (including EC50 and GI50 determination) using GraphPad Prism. Percentage of caspase activation was calculated against the maximum caspase activation value (100%) obtained with a proprietary cell kill control.
# 5637 = assay: cells; conditions: 6 h, read-out: AZD5991 6h EC50
# Procedure: as §1
# H82 = assay: cells; conditions: Homo sapiens, NCI-H82, 6 h, read-out: AZD5991 6h EC50
# Procedure: as §1
# ML2 = assay: cells; conditions: Homo sapiens, ML-2, 6 h, read-out: AZD5991 6h EC50
# Procedure: as §1
# Karpas620 = assay: cells; conditions: Karpas-620, 6 h, read-out: AZD5991 6h EC50
# Procedure: as §1
# AMO1 = assay: cells; conditions: Homo sapiens, AMO1, 6 h, read-out: AZD5991 6h EC50
# Procedure: as §1
# Sudhl16 = assay: cells; conditions: Homo sapiens, SU-DHL-16, 6 h, read-out: AZD5991 6h EC50
# Procedure: as §1
# Namalwa = assay: cells; conditions: 6 h, read-out: AZD5991 6h EC50
# Procedure: as §1
# H1975 = assay: cells; conditions: Homo sapiens, NCI-H1975, 6 h, read-out: AZD5991 6h EC50
# Procedure: as §1
# Raji [2] = assay: cells; conditions: Homo sapiens, 6 h, read-out: AZD5991 6h EC50
# Procedure: as §1
# Kasumi1 = assay: cells; conditions: Homo sapiens, Kasumi 1, 6 h, read-out: AZD5991 6h EC50
# Procedure: as §1
# Pfeiffer = assay: cells; conditions: Homo sapiens, 6 h, read-out: AZD5991 6h EC50
# Procedure: as §1
# Toledo [3] = assay: cells; conditions: Homo sapiens, 6 h, read-out: AZD5991 6h EC50
# Procedure: as §1
# WSUNHL = assay: cells; conditions: Homo sapiens, WSU-NHL, 6 h, read-out: AZD5991 6h EC50
# Procedure: as §1
# A253 = assay: cells; conditions: Homo sapiens, A253, 6 h, read-out: AZD5991 6h EC50
# Procedure: as §1
# RI1 = assay: cells; conditions: Ri-1, 6 h, read-out: AZD5991 6h EC50
# Procedure: as §1
# OPM2 = assay: cells; conditions: Homo sapiens, OPM-2, 6 h, read-out: AZD5991 6h EC50
# Procedure: as §1
# LP1 = assay: cells; conditions: Homo sapiens, LP-1, 6 h, read-out: AZD5991 6h EC50
# Procedure: as §1
# H526 = assay: cells; conditions: Homo sapiens, NCI-H526, 6 h, read-out: AZD5991 6h EC50
# Procedure: as §1
# Karpas422 = assay: Cell viability assay; type: cell-based; conditions: Homo sapiens, KARPAS-422, 24 h; Karpas422 (NHL); read-out: AZD5991 24h GI50
# MOLM-13 leukemic cells = assay: MOLM-13 disseminated AML model; type: in vivo, mice; conditions: venetoclax 100 mg kg^−1 p.o. daily, AZD5991 60 mg kg^−1 i.v. weekly, after 10 days
# Source text: MOLM-13: These studies complied with all relevant ethical regulations described in the guidelines established by GV-SOLAS Institutional Animal Care and Use Committee. Female CIEA-NOG mice were purchased from Taconic. Mice between 5 and 8 weeks old were tail vein injected with five million MOLM-13 cells. Treatment started 3 days after implantation. AZD5991, venetoclax, and vehicle were formulated and administered as mentioned above. Bone marrow and peripheral blood were collected 10 days post-treatment initiation, followed by red cell lysis (ACK lysis buffer), washes with FC buffer (PBS + 2% FCS) and cell staining with AquaZombie live/dead stain (cat#423102, Biolegend) containing antibodies against human CD45 (cat#564105, BDBiosciences) and human HLA-ABC (cat#561346, BDBiosciences) or isotype controls (mIgG1 cat#552834, BDBiosciences; mIgG1 cat#561504, BDBiosciences). Samples were washed with FC buffer and data acquired on an Attune NXT cytometer and analyzed using FlowJo software. Gating was performed on single/live/FCS vs. SSC/HLA-ABC vs. hCD45 double positive cells (Supplementary Figure 8).
# DU145 = assay: Cell viability assay; type: cell-based; conditions: Homo sapiens, DU-145, 24 h; DU145 (Urology); read-out: AZD5991 24h GI50
# Raji [4] = assay: Cell viability assay; type: cell-based; conditions: Homo sapiens, 24 h; Raji (NHL); read-out: AZD5991 24h GI50
# A2058 = assay: Cell viability assay; type: cell-based; conditions: Homo sapiens, 24 h; A2058 (Skin); read-out: AZD5991 24h GI50
# Toledo [5] = assay: Cell viability assay; type: cell-based; conditions: Homo sapiens, 24 h; Toledo (NHL); read-out: AZD5991 24h GI50
# OCIAML2 = assay: Cell viability assay; type: cell-based; conditions: Homo sapiens, OCI-AML2, 24 h; OCIAML2 (AML); read-out: AZD5991 24h GI50
smiles,measurement,setting,value
"Cc1c2c(nn1C)CSCc1cc(n(C)n1)CSc1cc(c3ccccc3c1)OCCCc1c(C(=O)O)n(C)c3c-2c(Cl)ccc13 (atropisomer, axis not shown; (Ra)) [(Ra)-7]",GI50,Daudi,133 nM
same,induced cell death,[1],resistance
same,GI50,FaDu,8870 nM
same,EC50,MDAMB468,> 30000 nM
same,EC50,5637,107 nM
same,EC50,H82,201 nM
same,EC50,ML2,83 nM
same,EC50,Karpas620,122 nM
same,EC50,AMO1,90 nM
same,EC50,Sudhl16,139 nM
same,EC50,Namalwa,67 nM
same,EC50,H1975,> 30000 nM
same,EC50,Raji [2],7400 nM
same,EC50,Kasumi1,297 nM
same,EC50,Pfeiffer,> 30000 nM
same,EC50,Toledo [3],1260 nM
same,EC50,WSUNHL,512 nM
same,EC50,A253,> 30000 nM
same,EC50,RI1,> 30000 nM
same,EC50,OPM2,59 nM
same,EC50,LP1,249 nM
same,EC50,H526,> 30000 nM
same,GI50,Karpas422,490 nM
same,percentage of HLA-ABC+ hCD45+ leukemic cells in peripheral blood vs. vehicle,MOLM-13 leukemic cells,significantly reduced
same,percentage of leukemic cells in bone marrow,MOLM-13 leukemic cells,reduced
same,GI50,DU145,26800 nM
same,GI50,Raji [4],167 nM
same,GI50,A2058,765 nM
same,GI50,Toledo [5],113 nM
same,GI50,OCIAML2,295 nM
